# Laboratory results from patent US20140135310A1, “SULPHONAMIDE DERIVATIVES OF ALICYCLIC AMINES FOR THE TREATMENT OF CENTRAL NERVOUS SYSTEM DISEASES” (Adamed Sp. z o.o., priority 2011, published 2014).
# Experiments:
# 5-HT7 receptor = target: T1, 5-HT7 receptor (Homo sapiens, UniProt P34969); experiment: Radioligand binding assay, serotoninergic 5-HT7 receptors; conditions: binding assay result in %, Table 5a;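 further: test compound at 1 µM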
# T1 construct: purchased PerkinElmer
# How it was run: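 Competition binding at human 5-HT7 receptors with a radioligand, detected by scintillation counting; non-specific binding was defined with excess unlabelled ligand. IC50 came from Hill-equation fits of competition curves, and Ki from Cheng–Prusoff using radioligand concentration and Scatchard-derived KD.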
# [1] = target: dopaminergic receptors D3 (Homo sapiens, UniProt P35462); experiment: Radioligand binding assay, dopaminergic D3 receptors; conditions: test compound 1×10^−6 M
# How it was run: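 Competition radioligand binding at human D2, D3 and D4.4 receptors, detected by scintillation counting; nonspecific binding defined with excess unlabelled ligand. Results as percent inhibition of control specific binding; IC50 by Hill-equation nonlinear regression; Ki via Cheng-Prusoff, with radioligand KD from Scatchard plot.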
# [2] = target: T2, serotonin transporter (SERT) (Homo sapiens, UniProt P31645); experiment: Radioligand binding assay, serotonin transporter (SERT); conditions: binding assay, test compound 1×10^−6 M
# T2 construct: expressed in transfected cells; host or cells: CHO cells
# How it was run: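 Radioligand competition binding with scintillation detection; specific binding is total minus binding under excess unlabelled ligand. Reported as % of control specific binding or % inhibition; IC50 from Hill-equation non-linear regression of competition curves, and Ki via Cheng-Prusoff using radioligand concentration and Scatchard-derived KD.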
# [3] = target: dopaminergic receptors D2 (Homo sapiens, UniProt P14416); experiment: Radioligand binding assay, dopaminergic D2 receptors; conditions: binding assay, test compound 1×10^−6 M
# How it was run: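 Radioligand displacement was measured by scintillation counting, with non-specific binding defined in the presence of excess unlabelled ligand. Competition curves were fitted to the Hill equation to give IC50, and Ki was derived by the Cheng–Prusoff equation.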
# 5-HT6 receptor = target: T3, 5-HT6 receptor (Homo sapiens, UniProt P50406); experiment: Radioligand binding assay, serotoninergic 5-HT6 receptors; conditions: binding assay result in %, Table 5a;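 further: test compound at 1 µM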
# T3 construct: purchased PerkinElmer
# How it was run: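 Values are Ki from Cheng–Prusoff, taking IC50 from Hill nonlinear regression of competition curves and KD from a Scatchard plot. Specific binding was total minus binding with excess unlabelled ligand. Radioligand displacement was detected by scintillation counting, and data were also reported as percent of control specific binding.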
# [4] = tested on: α1 adrenergic receptors (rat cerebral cortex); experiment: Radioligand binding assay, adrenergic α1 receptors; conditions: test compound 1×10^−6 M
# How it was run: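 Values derive from radioligand displacement, with non-specific binding defined by excess cold ligand and detection by scintillation. Hill-fit IC50s were converted to Ki via Cheng-Prusoff using Scatchard-derived Kd; percent inhibition of control specific binding also reported.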
# [5] = target: T4, 5-HT1A receptor (rat hippocampus) (Rattus norvegicus, UniProt P19327); experiment: Radioligand binding assay, serotoninergic 5-HT1A receptors; conditions: binding assay result in %, Table 5a;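 further: test compound at 1 µM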
# T4 construct: hippocampus; from tissue; host or cells: rat hippocampus
# T4 sequence (P19327 1-422): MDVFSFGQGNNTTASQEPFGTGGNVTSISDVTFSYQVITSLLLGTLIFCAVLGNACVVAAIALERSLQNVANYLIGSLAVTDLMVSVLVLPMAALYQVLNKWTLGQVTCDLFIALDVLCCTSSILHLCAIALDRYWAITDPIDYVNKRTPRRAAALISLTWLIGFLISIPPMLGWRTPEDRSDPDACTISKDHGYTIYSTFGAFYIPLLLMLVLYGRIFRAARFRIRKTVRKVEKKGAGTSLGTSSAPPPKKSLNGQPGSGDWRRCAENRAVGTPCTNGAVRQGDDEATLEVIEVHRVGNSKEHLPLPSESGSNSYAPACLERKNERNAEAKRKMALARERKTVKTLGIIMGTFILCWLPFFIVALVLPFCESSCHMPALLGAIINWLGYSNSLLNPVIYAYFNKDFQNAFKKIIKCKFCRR
# 5-HT2A receptor = target: T5, 5-HT2A receptor (Homo sapiens, UniProt P28223); experiment: Radioligand binding assay, serotoninergic 5-HT2A receptors; conditions: binding assay result in %, Table 5a
# T5 construct: purchased PerkinElmer
# How it was run: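 Radioligand competition binding with scintillation counting; nonspecific binding defined by excess unlabelled ligand. Data as percent inhibition of control specific binding. IC50 by Hill-equation fit of competition curves; Ki by Cheng-Prusoff, with radioligand Kd from Scatchard plot.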
# T5 sequence (P28223 whole entry): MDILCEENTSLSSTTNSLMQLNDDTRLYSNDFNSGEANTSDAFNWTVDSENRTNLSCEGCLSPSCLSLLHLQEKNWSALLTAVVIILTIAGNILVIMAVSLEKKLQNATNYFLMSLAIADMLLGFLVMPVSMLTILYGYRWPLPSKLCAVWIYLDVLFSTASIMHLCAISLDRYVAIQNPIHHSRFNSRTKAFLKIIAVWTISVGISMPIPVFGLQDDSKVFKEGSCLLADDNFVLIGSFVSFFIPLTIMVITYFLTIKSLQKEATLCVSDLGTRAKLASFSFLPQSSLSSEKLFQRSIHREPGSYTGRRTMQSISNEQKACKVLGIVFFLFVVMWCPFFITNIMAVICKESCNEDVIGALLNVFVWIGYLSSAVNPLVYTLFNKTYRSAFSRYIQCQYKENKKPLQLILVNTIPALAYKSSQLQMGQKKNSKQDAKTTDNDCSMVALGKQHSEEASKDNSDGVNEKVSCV
# Chain of dopaminergic receptors D2 (P14416 whole entry): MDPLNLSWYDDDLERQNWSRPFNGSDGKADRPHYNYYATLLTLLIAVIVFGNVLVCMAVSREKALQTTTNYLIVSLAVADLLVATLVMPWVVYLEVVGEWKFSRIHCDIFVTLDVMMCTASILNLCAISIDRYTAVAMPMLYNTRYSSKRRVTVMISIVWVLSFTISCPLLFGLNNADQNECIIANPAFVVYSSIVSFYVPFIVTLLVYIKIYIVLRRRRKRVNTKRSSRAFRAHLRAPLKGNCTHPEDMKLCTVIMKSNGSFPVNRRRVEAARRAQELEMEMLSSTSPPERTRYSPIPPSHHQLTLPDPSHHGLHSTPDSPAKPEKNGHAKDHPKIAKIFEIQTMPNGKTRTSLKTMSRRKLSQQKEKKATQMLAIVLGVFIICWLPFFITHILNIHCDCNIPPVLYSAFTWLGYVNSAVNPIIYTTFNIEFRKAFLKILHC
# T1 sequence (P34969 whole entry): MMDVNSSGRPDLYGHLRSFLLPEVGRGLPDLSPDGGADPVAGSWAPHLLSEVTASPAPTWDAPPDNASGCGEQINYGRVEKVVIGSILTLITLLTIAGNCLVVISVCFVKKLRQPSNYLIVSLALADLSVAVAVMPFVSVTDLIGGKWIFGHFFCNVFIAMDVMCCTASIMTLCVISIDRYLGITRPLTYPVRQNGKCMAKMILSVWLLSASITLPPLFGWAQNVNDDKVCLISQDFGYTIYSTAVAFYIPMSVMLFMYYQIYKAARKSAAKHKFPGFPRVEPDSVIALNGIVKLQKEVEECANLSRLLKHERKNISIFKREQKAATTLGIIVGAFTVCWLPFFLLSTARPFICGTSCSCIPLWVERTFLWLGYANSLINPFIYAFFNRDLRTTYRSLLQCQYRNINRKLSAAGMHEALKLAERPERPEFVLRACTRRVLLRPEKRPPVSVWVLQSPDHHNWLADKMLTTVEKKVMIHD
# T2 sequence (P31645 whole entry): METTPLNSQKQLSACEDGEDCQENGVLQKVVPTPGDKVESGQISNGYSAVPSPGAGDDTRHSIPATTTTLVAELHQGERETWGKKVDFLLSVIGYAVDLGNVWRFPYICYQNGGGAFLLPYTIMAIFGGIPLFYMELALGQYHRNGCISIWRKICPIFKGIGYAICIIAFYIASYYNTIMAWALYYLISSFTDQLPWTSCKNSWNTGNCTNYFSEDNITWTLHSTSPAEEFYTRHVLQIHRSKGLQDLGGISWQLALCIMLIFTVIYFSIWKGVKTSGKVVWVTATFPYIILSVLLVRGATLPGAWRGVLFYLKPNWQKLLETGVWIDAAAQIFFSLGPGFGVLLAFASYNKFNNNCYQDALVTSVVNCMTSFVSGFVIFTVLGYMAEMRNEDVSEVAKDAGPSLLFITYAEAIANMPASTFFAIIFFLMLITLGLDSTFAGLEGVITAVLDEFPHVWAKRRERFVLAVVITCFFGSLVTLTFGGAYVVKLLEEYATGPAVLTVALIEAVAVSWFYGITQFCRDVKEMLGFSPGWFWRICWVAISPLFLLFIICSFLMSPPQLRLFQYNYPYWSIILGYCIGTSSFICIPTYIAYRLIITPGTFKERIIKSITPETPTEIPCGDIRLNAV
# Chain of dopaminergic receptors D3 (P35462 whole entry): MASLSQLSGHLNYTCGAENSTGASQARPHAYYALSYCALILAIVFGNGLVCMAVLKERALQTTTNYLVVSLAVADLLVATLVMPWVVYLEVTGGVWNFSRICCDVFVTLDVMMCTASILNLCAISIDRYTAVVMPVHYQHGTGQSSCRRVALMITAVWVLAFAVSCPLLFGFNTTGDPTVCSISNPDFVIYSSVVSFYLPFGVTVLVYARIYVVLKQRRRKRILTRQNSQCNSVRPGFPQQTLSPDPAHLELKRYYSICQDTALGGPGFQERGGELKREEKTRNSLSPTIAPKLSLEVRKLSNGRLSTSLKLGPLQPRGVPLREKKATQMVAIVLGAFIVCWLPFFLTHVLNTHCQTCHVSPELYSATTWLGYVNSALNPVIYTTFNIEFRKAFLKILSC
# T3 sequence (P50406 whole entry): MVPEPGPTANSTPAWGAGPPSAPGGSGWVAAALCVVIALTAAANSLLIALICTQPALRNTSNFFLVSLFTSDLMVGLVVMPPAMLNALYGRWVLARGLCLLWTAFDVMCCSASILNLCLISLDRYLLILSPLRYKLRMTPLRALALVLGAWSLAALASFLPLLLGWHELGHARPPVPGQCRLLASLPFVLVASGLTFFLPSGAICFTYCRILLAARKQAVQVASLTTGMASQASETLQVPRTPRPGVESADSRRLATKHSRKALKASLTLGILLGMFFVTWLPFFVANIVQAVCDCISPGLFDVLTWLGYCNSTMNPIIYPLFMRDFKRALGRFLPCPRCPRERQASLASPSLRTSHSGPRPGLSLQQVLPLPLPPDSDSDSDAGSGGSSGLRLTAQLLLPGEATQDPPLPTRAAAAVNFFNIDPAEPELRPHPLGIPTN
Structure (SMILES),inhibition at 1 µM (5-HT7 receptor),inhibition at 1 µM [1],inhibition at 1 µM [2],inhibition at 1 µM [3],inhibition at 1 µM (5-HT6 receptor),α1 [%] [4],inhibition at 1 µM [5],inhibition at 1 µM (5-HT2A receptor)
"O=S(=O)(NCC1CN(CCOc2cccc3c2OCCO3)C1)c1cccs1 [Compound 184, N-[[1-[2-(2,3-Dihydro-1,4-benzodioxin-5-yloxy)ethyl]azetidin-3-yl]methyl]-thiophene-2-sulphonamide]",89%,39%,1%,24%,20%,88%,71%,76%
"O=S(=O)(NCC1CN(CCOc2cccc3c2OCCO3)C1)c1ccc(Br)cc1 [Compound 185, 4-Bromo-N-[[1-[2-(2,3-dihydro-1,4-benzodioxin-5-yloxy)ethyl]azetidin-3-yl]methyl]benzenesulphonamide]",90%,0%,23%,25%,23%,34%,88%,39%
"Cn1ccc2cc(S(=O)(=O)NCC3CN(CCOc4cccc5c4OCCO5)C3)ccc21 [Compound 187, N-[[1-[2-(2,3-Dihydro-1,4-benzodioxin-5-yloxy)ethyl]azetidin-3-yl]methyl]-1-methyl-indole-5-sulphonamide]",98%,48%,69%,56%,44%,88%,78%,93%
"Cn1ccc2c(S(=O)(=O)NCC3CN(CCOc4cccc5c4OCCO5)C3)cccc21 [Compound 188, N-[[1-[2-(2,3-Dihydro-1,4-benzodioxin-5-yloxy)ethyl]azetidin-3-yl]methyl]-1-methyl-indole-4-sulphonamide]",91%,51%,44%,52%,14%,91%,101%,89%
"O=C1Cc2cc(S(=O)(=O)NCC3CN(CCOc4cccc5c4OCCO5)C3)ccc2N1 [Compound 189, N-[[1-[2-(2,3-Dihydro-1,4-benzodioxin-5-yloxy)ethyl]azetidin-3-yl]methyl]-2-oxo-indoline-5-sulphonamide]",90%,61%,41%,71%,46%,71%,112%,74%
"O=S(=O)(NCC1CN(CCOc2cccc3c2OCCO3)C1)c1csc2ccccc12 [Compound 190, N-[[1-[2-(2,3-Dihydro-1,4-benzodioxin-5-yloxy)ethyl]azetidin-3-yl]methyl]-benzothiophene-3-sulphonamide]",97%,62%,31%,51%,34%,86%,100%,68%
"O=S(=O)(NCC1CN(CCOc2cccc3c2OCCO3)C1)c1ccsc1 [Compound 191, N-[[1-[2-(2,3-Dihydro-1,4-benzodioxin-5-yloxy)ethyl]azetidin-3-yl]methyl]-thiophene-3-sulphonamide]",93%,25%,32%,7%,5%,54%,98%,42%
"O=S(=O)(NCC1CN(CCOc2cccc3c2OCCO3)C1)c1ccc(Cl)s1 [Compound 192, 5-Chloro-N-[[1-[2-(2,3-dihydro-1,4-benzodioxin-5-yloxy)ethyl]azetidin-3-yl]methyl]thiophene-2-sulphonamide]",97%,70%,38%,42%,30%,88%,79%,86%
